The subject of the assay is HCT116. The conditions noted are these: 72 h. The gist of the method:
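For IC50 and maximal efficacy, four-parameter Hill fits were used. Input values were CellTiter-Glo luminescence from HCT116 cells seeded at 250 per well in 1536-well plates, normalized to vehicle (0%) and positive control (-100%). Pattern correction followed normalization.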

The structures appear in SMILES notation. Where a name gives a salt, the structure may show the parent alone.

`O=C1OC2(c3ccccc31)c1cc(I)c(O)c(I)c1Oc1c2cc(I)c(O)c1I` [Erythrosin B]: the IC50 cell viability by setting is: (ICRF193 0 nM) > 45.8 µM; (ICRF193 200 nM) > 45.8 µM.
As to `Cc1cc(O)c2c(c1)O[C@@]1(C)CC[C@H]3C(C)(C)CCC[C@]34CO[C@@H]2[C@H]41` [Siccanin], the IC50 cell viability is, setting by setting: (ICRF193 0 nM) > 45.8 µM; (ICRF193 200 nM) > 45.8 µM.
As for `CCN1CCN(c2cc3c(cc2F)c(=O)c(C(=O)O)cn3C2CC2)CC1` [Enrofloxacin], the IC50 cell viability is, setting by setting: (ICRF193 0 nM) > 45.8 µM; (ICRF193 200 nM) > 45.8 µM.
On to `Cc1cccn2c(=O)c(-c3nnn[nH]3)cnc12` [Pemirolast potassium], for which the IC50 cell viability (ICRF193 0 nM) was > 45.8 µM and the IC50 cell viability (ICRF193 200 nM) is > 45.8 µM.
Take `COc1ccc(CCNCC(O)COc2cccc(C)c2)cc1OC` (stereo not drawn) [Bevantolol hydrochloride]: the IC50 cell viability (ICRF193 0 nM) was > 45.8 µM and the IC50 cell viability (ICRF193 200 nM) is > 45.8 µM.
For the molecule `CC(=O)[C@@]1(O)CC[C@H]2[C@@H]3C[C@H](C)C4=CC(=O)C=C[C@]4(C)[C@@]3(F)[C@@H](O)C[C@@]21C` [Fluorometholone], the IC50 cell viability is, setting by setting: (ICRF193 0 nM) > 45.8 µM; (ICRF193 200 nM) > 45.8 µM.
On to `CCCC(=O)OC(C(Cl)(Cl)Cl)P(=O)(OC)OC` (stereo not drawn) [Butonate], for which the IC50 cell viability is, setting by setting: (ICRF193 0 nM) > 45.8 µM; (ICRF193 200 nM) > 45.8 µM.
For `CCN(CC)CC(=O)Nc1c(C)cccc1C` [Lidocaine], the IC50 cell viability runs as follows: (ICRF193 0 nM) > 45.8 µM; (ICRF193 200 nM) > 45.8 µM.
Regarding `CCC1C(C)=NN=C(c2ccc(OC)c(OC)c2)c2cc(OC)c(OC)cc21` (stereo not drawn) [Tofisopam], the IC50 cell viability reads like this: (ICRF193 0 nM) > 45.8 µM; (ICRF193 200 nM) > 45.8 µM.
Regarding `CO/N=C(\C(=O)N[C@@H]1C(=O)N2C(C(=O)O)=C(CSc3nnnn3C)CS[C@H]12)c1csc(N)n1` [CEFMENOXIME HYDROCHLORIDE], the IC50 cell viability is > 45.8 µM (ICRF193 0 nM) and > 45.8 µM (ICRF193 200 nM).
Consider `CCOC(=O)c1ccc(OCCN2C[C@H](O)[C@@H](O)[C@H](O)[C@H]2CO)cc1` [Emiglitate], for which the IC50 cell viability reads like this: (ICRF193 0 nM) > 45.8 µM; (ICRF193 200 nM) > 45.8 µM.
With `CC(C)(O)[C@@H]1[C@H]2OC(=O)[C@@H]1[C@]1(O)C[C@H]3O[C@]34C(=O)O[C@H]2[C@]14C` [PICROTIN], the IC50 cell viability is, setting by setting: (ICRF193 0 nM) > 45.8 µM; (ICRF193 200 nM) > 45.8 µM.
Consider `CCCCCN(CCCOC)C(=O)C(CCC(=O)O)NC(=O)c1ccc(Cl)c(Cl)c1` (stereo not drawn) [Loxiglumide], for which the IC50 cell viability was > 45.8 µM (ICRF193 0 nM) and > 45.8 µM (ICRF193 200 nM).
As for `CC=CC(=O)N(CC)c1ccccc1C` [Crotamiton], the IC50 cell viability (ICRF193 0 nM) is > 45.8 µM and the IC50 cell viability (ICRF193 200 nM) was > 45.8 µM.
On to `CC(C)(O)C(Cl)(Cl)Cl` [1,1,1-Trichloro-2-methyl-2-propanol], for which the IC50 cell viability by setting is: (ICRF193 0 nM) > 45.8 µM; (ICRF193 200 nM) > 45.8 µM.
With `COc1cccc(N(C)C(=S)Oc2ccc3c(c2)CCCC3)n1` [Liranaftate], the IC50 cell viability (ICRF193 0 nM) was > 45.8 µM and the IC50 cell viability (ICRF193 200 nM) is > 45.8 µM.
For the molecule `CC(=O)N[C@H]1[C@H]([C@H](O)[C@H](O)CO)OC(C(=O)O)=C[C@@H]1NC(=N)N` [Zanamivir], the IC50 cell viability (ICRF193 0 nM) is > 45.8 µM and the IC50 cell viability (ICRF193 200 nM) was > 45.8 µM.
Turning to `CCOC(=O)c1ncn2c1CN(C)C(=O)c1cc(F)ccc1-2` [Flumazenil], the IC50 cell viability (ICRF193 0 nM) was > 45.8 µM and the IC50 cell viability (ICRF193 200 nM) was > 45.8 µM.
For `CN1CCCCC1CCN1c2ccccc2Sc2ccc([S+](C)[O-])cc21` (stereo not drawn) [Mesoridazine], the IC50 cell viability is, setting by setting: (ICRF193 0 nM) > 45.8 µM; (ICRF193 200 nM) > 45.8 µM.
Turning to `O=C(O)CCSC[C@H]1O[C@@H]2O[C@H]3[C@H](O)[C@@H](O)[C@@H](O[C@H]4[C@H](O)[C@@H](O)[C@@H](O[C@H]5[C@H](O)[C@@H](O)[C@@H](O[C@H]6[C@H](O)[C@@H](O)[C@@H](O[C@H]7[C@H](O)[C@@H](O)[C@@H](O[C@H]8[C@H](O)[C@@H](O)[C@@H](O[C@H]9[C@H](O)[C@@H](O)[C@@H](O[C@H]1[C@H](O)[C@H]2O)O[C@@H]9CSCCC(=O)O)O[C@@H]8CSCCC(=O)O)O[C@@H]7CSCCC(=O)O)O[C@@H]6CSCCC(=O)O)O[C@@H]5CSCCC(=O)O)O[C@@H]4CSCCC(=O)O)O[C@@H]3CSCCC(=O)O` [Sugammadex], the IC50 cell viability by setting is: (ICRF193 0 nM) > 45.8 µM; (ICRF193 200 nM) > 45.8 µM.
`CO[C@H]1/C=C/O[C@@]2(C)Oc3c(C)c(O)c4c(O)c(c5c(nc6cc(C)ccn65)c4c3C2=O)NC(=O)/C(C)=C\C=C\[C@H](C)[C@H](O)[C@@H](C)[C@@H](O)[C@@H](C)[C@H](OC(C)=O)[C@@H]1C` [Rifaximin]: the IC50 cell viability is > 45.8 µM (ICRF193 0 nM) and > 45.8 µM (ICRF193 200 nM).
As for `C[C@@](Cc1ccc(O)c(O)c1)(NN)C(=O)O` [Carbidopa], the IC50 cell viability (ICRF193 0 nM) was > 45.8 µM and the IC50 cell viability (ICRF193 200 nM) is > 45.8 µM.
Take `COc1ccc(-n2nc(C(N)=O)c3c2C(=O)N(c2ccc(N4CCCCC4=O)cc2)CC3)cc1` [Apixaban]: the IC50 cell viability is > 45.8 µM (ICRF193 0 nM) and > 45.8 µM (ICRF193 200 nM).
Take `COc1cccc(N2CCN(C3=Nc4c(F)cccc4[C@H](CC(=O)O)N3c3cc(C(F)(F)F)ccc3OC)CC2)c1` [Letermovir]: the IC50 cell viability was > 45.8 µM (ICRF193 0 nM) and > 45.8 µM (ICRF193 200 nM).

Source of the values: the supplement of paper PMC12137928.
